Reference: article PMC6386362, “Mechanism and resistance for antimycobacterial activity of a fluoroquinophenoxazine compound” (PLoS ONE, 2019)

Target: T1, Mtb topoisomerase I (MtbTopI) (Mycobacterium tuberculosis, UniProt P9WG49)
T1 construct: gene topA
Format: biochemical

T1 sequence (P9WG49 whole entry): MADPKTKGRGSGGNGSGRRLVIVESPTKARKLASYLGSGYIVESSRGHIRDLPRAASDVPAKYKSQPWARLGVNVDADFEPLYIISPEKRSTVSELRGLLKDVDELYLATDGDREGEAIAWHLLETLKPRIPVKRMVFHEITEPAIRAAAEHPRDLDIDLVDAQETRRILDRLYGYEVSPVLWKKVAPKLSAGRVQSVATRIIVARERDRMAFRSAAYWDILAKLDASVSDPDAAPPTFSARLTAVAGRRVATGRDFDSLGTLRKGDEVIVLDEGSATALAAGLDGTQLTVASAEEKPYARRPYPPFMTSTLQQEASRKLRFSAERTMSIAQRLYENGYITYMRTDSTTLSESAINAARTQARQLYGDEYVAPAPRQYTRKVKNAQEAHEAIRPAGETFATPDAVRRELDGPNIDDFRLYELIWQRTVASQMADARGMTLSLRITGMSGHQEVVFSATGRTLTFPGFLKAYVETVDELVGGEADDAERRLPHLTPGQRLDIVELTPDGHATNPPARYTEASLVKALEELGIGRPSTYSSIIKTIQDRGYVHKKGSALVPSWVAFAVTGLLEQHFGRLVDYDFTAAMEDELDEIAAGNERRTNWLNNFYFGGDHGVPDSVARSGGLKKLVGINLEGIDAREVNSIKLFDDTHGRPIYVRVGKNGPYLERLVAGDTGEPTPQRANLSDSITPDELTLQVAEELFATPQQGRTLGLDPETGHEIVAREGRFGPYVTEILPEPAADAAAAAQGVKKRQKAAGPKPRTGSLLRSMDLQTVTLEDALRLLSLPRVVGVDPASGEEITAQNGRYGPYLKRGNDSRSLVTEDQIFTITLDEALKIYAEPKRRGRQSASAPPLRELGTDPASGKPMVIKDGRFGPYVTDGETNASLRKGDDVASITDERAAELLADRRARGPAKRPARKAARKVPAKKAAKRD

SMILES: Nc1ccc2c(c1)Oc1c(N3CCC(N4CCCCC4)CC3)c(F)cc3c(=O)c(C(=O)O)cn-2c13 [FP-11g]
- IC50: 240 ± 40 nM
